The results in this text go back to patent US20240158370A1, “CK1 alpha AND DUAL CK1 alpha / GSPT1 DEGRADING COMPOUNDS” (Innovo Therapeutics, Inc., priority 2022, published 2024).

Molecules are shown by their SMILES.

Type in all cases: cell-based
One assay has as its target T1, CK1α (Homo sapiens, UniProt P48729+Q96SW2).
T1 construct: CSNK1A1-HiBit KI HEK293(LgBit) Cells; host or cells: HEK293(LgBit) knock-in cells
Kind of assay: HiBiT degradation assay, CK1α, Procedure A. Particulars: six hours. A digest of the protocol:
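Cells in DMEM+10% FBS at 1×10^6 cells/ml were added to pre-spotted compound (10-point dose response, 10 μM to 0.005 μM, 0.1% DMSO) and incubated 6 h at 37° C. Nano-Glo HiBiT lytic reagent was added and luminescence read. DC50 and Ymin came from 4-parameter curve fits.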
In general terms: The HiBiT peptide binds its large partner to form an active luciferase.

The next assay concerns Z-138 cells. Kind of assay: Z-138 Proliferation Assay (Cell Titer-Glo). Particulars: 72 hours; for Ymin (%): % remaining (percent of DMSO control); for EC50: Homo sapiens, Cell Titer-Glo, 4-parameter curve fit. A digest of the protocol: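 Z-138 cells (4,000 cells/well, IMDM + 10% FBS) exposed 72 h to 10-point 1:2 compound dilutions from 10,000 nM top, 0.1% DMSO. Viability read by CellTiter-Glo luminescence; EC50 from 4-parameter fit of percent of DMSO control.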

A further assay addresses GSPT1 (Homo sapiens, UniProt P15170+Q96SW2). Kind of assay: HiBiT degradation assay, GSPT1, Procedure B (Molt 4_hGSPT1_HiBIT cells). Also noted: Molt 4_hGSPT1_HiBIT N-terminus tagged cells were generated using CRISPR technology; endogenous in cells; host or cells: Molt 4 cells, CRISPR-edited. The following applies: six hours. A digest of the protocol: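 CRISPR N-terminal HiBiT-tagged Molt 4 cells at 1×10^6 cells/ml were treated 6 h at 37° C with compounds (10-point, 10 μM to 0.005 μM, 0.1% DMSO). Remaining HiBiT-GSPT1 was read by lytic luminescence; DC50 and Ymin (% remaining) from a 4-parameter fit.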

T1 sequence (P48729 whole entry): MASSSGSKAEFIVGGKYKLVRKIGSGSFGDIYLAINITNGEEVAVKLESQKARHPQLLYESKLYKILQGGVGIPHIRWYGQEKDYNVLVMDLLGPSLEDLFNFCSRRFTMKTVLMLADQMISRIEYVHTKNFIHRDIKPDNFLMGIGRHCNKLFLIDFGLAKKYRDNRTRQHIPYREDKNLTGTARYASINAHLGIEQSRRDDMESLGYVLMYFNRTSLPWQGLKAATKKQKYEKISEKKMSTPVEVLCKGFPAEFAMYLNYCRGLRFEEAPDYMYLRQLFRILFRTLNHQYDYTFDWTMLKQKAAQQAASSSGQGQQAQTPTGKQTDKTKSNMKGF
T1 sequence (Q96SW2 whole entry): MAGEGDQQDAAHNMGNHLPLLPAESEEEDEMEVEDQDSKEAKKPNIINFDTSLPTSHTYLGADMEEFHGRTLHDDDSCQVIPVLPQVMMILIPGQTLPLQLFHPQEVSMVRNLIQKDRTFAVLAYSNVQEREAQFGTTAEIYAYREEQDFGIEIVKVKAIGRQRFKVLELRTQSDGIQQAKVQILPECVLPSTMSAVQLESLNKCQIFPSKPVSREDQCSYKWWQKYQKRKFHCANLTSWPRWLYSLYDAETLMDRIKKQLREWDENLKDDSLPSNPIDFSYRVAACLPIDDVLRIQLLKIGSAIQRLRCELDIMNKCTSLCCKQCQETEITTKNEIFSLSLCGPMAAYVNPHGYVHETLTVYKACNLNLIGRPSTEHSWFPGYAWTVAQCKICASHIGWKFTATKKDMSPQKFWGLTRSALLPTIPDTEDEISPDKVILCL
T1 sequence (Q16531 whole entry partner): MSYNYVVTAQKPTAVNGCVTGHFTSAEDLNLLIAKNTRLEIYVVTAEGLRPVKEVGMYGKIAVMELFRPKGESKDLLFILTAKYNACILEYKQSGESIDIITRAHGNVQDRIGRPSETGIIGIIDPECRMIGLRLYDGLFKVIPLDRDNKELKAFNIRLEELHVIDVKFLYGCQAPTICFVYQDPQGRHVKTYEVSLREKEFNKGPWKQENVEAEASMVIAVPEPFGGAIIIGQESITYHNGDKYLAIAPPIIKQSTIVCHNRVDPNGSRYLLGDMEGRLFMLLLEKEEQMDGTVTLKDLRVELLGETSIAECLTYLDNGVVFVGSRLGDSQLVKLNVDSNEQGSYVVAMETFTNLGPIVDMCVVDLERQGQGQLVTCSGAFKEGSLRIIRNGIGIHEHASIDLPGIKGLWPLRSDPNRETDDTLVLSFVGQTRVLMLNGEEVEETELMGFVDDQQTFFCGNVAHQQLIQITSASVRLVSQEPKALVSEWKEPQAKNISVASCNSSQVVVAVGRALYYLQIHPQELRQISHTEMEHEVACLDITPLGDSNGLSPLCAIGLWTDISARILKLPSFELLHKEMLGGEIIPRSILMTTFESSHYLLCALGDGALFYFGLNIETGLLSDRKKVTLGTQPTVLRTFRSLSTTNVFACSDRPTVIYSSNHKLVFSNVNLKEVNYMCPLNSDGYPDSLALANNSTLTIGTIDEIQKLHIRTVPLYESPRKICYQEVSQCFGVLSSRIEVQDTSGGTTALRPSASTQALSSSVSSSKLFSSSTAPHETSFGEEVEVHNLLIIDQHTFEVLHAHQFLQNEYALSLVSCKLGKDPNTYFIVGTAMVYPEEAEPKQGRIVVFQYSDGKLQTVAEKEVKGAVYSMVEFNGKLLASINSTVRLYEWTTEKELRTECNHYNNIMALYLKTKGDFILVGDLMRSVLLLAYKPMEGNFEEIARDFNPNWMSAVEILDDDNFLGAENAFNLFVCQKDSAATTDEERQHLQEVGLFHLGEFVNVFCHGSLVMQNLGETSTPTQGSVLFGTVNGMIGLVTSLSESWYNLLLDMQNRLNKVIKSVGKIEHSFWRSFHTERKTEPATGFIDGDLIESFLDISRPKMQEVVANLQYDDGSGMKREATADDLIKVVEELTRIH
GSPT1, sequence (P15170 whole entry): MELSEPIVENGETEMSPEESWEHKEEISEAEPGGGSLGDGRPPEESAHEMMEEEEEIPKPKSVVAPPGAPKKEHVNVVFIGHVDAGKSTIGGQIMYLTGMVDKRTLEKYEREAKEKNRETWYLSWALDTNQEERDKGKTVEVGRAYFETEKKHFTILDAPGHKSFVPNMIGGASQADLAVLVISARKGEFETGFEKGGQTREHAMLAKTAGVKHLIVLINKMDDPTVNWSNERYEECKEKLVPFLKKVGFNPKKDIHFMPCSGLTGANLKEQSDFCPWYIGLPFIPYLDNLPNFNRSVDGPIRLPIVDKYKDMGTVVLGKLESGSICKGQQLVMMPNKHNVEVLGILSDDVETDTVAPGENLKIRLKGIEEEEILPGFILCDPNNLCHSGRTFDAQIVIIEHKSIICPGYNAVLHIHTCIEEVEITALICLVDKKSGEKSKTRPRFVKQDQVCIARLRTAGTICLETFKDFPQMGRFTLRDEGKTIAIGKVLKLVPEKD
GSPT1, sequence (Q96SW2 whole entry): as the sequence (Q96SW2 whole entry) above
GSPT1, sequence (Q16531 whole entry partner): as the sequence (Q16531 whole entry partner) above

In general, DC50 refers to the concentration giving 50% degradation. Broadly, the EC50 is the concentration giving half of the maximal effect. Higher therefore signals a need for much substance. For `Cc1cn(-c2ccccc2)c(-c2ccc3c(c2)CN(C2CCC(=O)NC2=O)C3=O)n1` (stereo not drawn) [Example 729, 3-(5-(4-methyl-1-phenyl-1H-imidazol-2-yl)-1-oxoisoindolin-2-yl)piperidine-2,6-dione], on CK1α, the “CK1α Ymin” value is reported as “C (C = 0-10% remaining)” and the half-maximal degradation concentration (DC50) is under 25 nM. In addition, in the assay with Z-138 cells, the “Ymin (%)” value is reported as “D (0-10% remaining)” and the half-maximal effective concentration (EC50) was under 10 nM. In addition, on GSPT1, the DC50 was under 25 nM and the “GSPT1 Ymin” value is recorded as “E (E = >25-75% remaining)”.

Turning to `CC(C)c1cn(-c2ccccc2)c(-c2ccc3c(c2)CN(C2CCC(=O)NC2=O)C3=O)n1` (stereo not drawn) [Example 731, 3-(5-(4-isopropyl-1-phenyl-1H-imidazol-2-yl)-1-oxoisoindolin-2-yl)piperidine-2,6-dione], at CK1α, the “CK1α Ymin” value is “C (C = 0-10% remaining)” and the DC50 was under 25 nM. Further, in the assay on Z-138 cells, the “Ymin (%)” value is “D (0-10% remaining)” and the EC50 was under 10 nM. For the same compound, on GSPT1, the DC50 was under 25 nM and the “GSPT1 Ymin” value was “E (E = >25-75% remaining)”.

As to `Cn1nc(-c2ccc3c(c2)CN(C2CCC(=O)NC2=O)C3=O)nc1-c1ccc(Cl)cc1` (stereo not drawn) [Example 622, 3-(5-(5-(4-chlorophenyl)-1-methyl-1H-1,2,4-triazol-3-yl)-1-oxoisoindolin-2-yl)piperidine-2,6-dione], at CK1α, the “CK1α Ymin” value is “D (D = >10- 25% remaining)” and the DC50 was under 25 nM. In the assay with Z-138 cells, the “Ymin (%)” value is “E (>10-25% remaining)” and the EC50 lay in the range of 10 to 100 nM. On GSPT1, the half-maximal degradation concentration (DC50) is at least 25 nM and the “GSPT1 Ymin” value is given as “E (E = >25-75% remaining)”.

`CC(C)Cc1nc(-c2ccc3c(c2)CN(C2CCC(=O)NC2=O)C3=O)c(-c2ccccc2)o1` (stereo not drawn) [Example 732, 3-(5-(2-isobutyl-5-phenyloxazol-4-yl)-1-oxoisoindolin-2-yl)piperidine-2,6-dione]: on CK1α, the “CK1α Ymin” value is on record as “C (C = 0-10% remaining)” and the half-maximal degradation concentration (DC50) was under 25 nM. Also, in the assay on Z-138 cells, the “Ymin (%)” value was “D (0-10% remaining)” and the EC50 was under 10 nM. Further, on GSPT1, the DC50 was under 25 nM and the “GSPT1 Ymin” value is “F (F = >75-100% remaining)”.

Turning to `CCc1cn(-c2ccccc2)c(-c2ccc3c(c2)CN(C2CCC(=O)NC2=O)C3=O)n1` (stereo not drawn) [Example 730, 3-(5-(4-ethyl-1-phenyl-1H-imidazol-2-yl)-1-oxoisoindolin-2-yl)piperidine-2,6-dione], at CK1α, the “CK1α Ymin” value was “C (C = 0-10% remaining)” and the half-maximal degradation concentration (DC50) is under 25 nM. In the assay on Z-138 cells, the “Ymin (%)” value is “D (0-10% remaining)” and the EC50 is under 10 nM. Further, on GSPT1, the 50% degradation concentration (DC50) is under 25 nM and the “GSPT1 Ymin” value is “E (E = >25-75% remaining)”.

For the compound `CC(C)c1nc(-c2ccc3c(c2)CN(C2CCC(=O)NC2=O)C3=O)cn1-c1ccccc1` (stereo not drawn) [Example 728, 3-(5-(2-isopropyl-1-phenyl-1H-imidazol-4-yl)-1-oxoisoindolin-2-yl)piperidine-2,6-dione], on CK1α, the “CK1α Ymin” value is “C (C = 0-10% remaining)” and the DC50 is under 25 nM. Further, in the assay with Z-138 cells, the “Ymin (%)” value was “E (>10-25% remaining)” and the EC50 is under 10 nM. Also, at GSPT1, the DC50 was at least 25 nM and the “GSPT1 Ymin” value is “F (F = >75-100% remaining)”.

Consider `O=C1CCC(N2Cc3cc(-c4cc(-c5ccccc5)n(CC(F)(F)F)n4)ccc3C2=O)C(=O)N1` (stereo not drawn) [Example 710, 3-(1-oxo-5-(5-phenyl-1-(2,2,2-trifluoroethyl)-1H-pyrazol-3-yl)isoindolin-2-yl)piperidine-2,6-dione], for which, at CK1α, the “CK1α Ymin” value was “C (C = 0-10% remaining)” and the DC50 is under 25 nM. Also, in the assay with Z-138 cells, the “Ymin (%)” value was “E (>10-25% remaining)” and the EC50 is under 10 nM. Besides, on GSPT1, the DC50 was under 25 nM and the “GSPT1 Ymin” value was “F (F = >75-100% remaining)”.

`O=C1CCC(N2Cc3cc(-c4cc(-c5ccccc5)n(C5CC5)n4)ccc3C2=O)C(=O)N1` (stereo not drawn) [Example 621, 3-(5-(1-cyclopropyl-5-phenyl-1H-pyrazol-3-yl)-1-oxoisoindolin-2-yl)piperidine-2,6-dione]: at CK1α, the “CK1α Ymin” value is on record as “C (C = 0-10% remaining)” and the DC50 is under 25 nM. In the assay with Z-138 cells, the “Ymin (%)” value is on record as “D (0-10% remaining)” and the EC50 was under 10 nM. Moreover, at GSPT1, the DC50 is at least 25 nM and the “GSPT1 Ymin” value is reported as “F (F = >75-100% remaining)”.

As for `CC(C)c1nc(-c2ccc3c(c2)CN(C2CCC(=O)NC2=O)C3=O)c(-c2ccccc2)o1` (stereo not drawn) [Example 733, 3-(5-(2-isopropyl-5-phenyloxazol-4-yl)-1-oxoisoindolin-2-yl)piperidine-2,6-dione], on CK1α, the “CK1α Ymin” value is on record as “C (C = 0-10% remaining)” and the DC50 is under 25 nM. Besides, in the assay on Z-138 cells, the “Ymin (%)” value is listed as “D (0-10% remaining)” and the EC50 was under 10 nM. For the same compound, on GSPT1, the DC50 was at least 25 nM and the “GSPT1 Ymin” value was “F (F = >75-100% remaining)”.

With `CC(C)c1nc(-c2ccc3c(c2)CN(C2CCC(=O)NC2=O)C3=O)c(-c2ccccc2)n1C` (stereo not drawn) [Example 726, 3-(5-(2-isopropyl-1-methyl-5-phenyl-1H-imidazol-4-yl)-1-oxoisoindolin-2-yl)piperidine-2,6-dione], at CK1α, the “CK1α Ymin” value is “C (C = 0-10% remaining)” and the DC50 was under 25 nM. Also, in the assay with Z-138 cells, the “Ymin (%)” value is listed as “D (0-10% remaining)” and the 50% effective concentration (EC50) was under 10 nM. Moreover, at GSPT1, the DC50 is at least 25 nM and the “GSPT1 Ymin” value is given as “F (F = >75-100% remaining)”.

Turning to `Cn1ncc(-c2ccc3c(c2)CN(C2CCC(=O)NC2=O)C3=O)c1C1CCCC1` (stereo not drawn) [Example 692], at CK1α, the “CK1α Ymin” value is “E (E = >25-75% remaining)” and the DC50 is at least 25 nM. For the same compound, in the assay on Z-138 cells, the “Ymin (%)” value was “E (>10-25% remaining)” and the EC50 was in the range of 100 to 500 nM. At GSPT1, the DC50 was at least 25 nM and the “GSPT1 Ymin” value was “F (F = >75-100% remaining)”.

In the case of `Cn1nc(-c2ccc3c(c2)CN(C2CCC(=O)NC2=O)C3=O)cc1-c1ccc(Cl)cc1` (stereo not drawn) [Example 717, 3-(5-(5-(4-chlorophenyl)-1-methyl-1H-pyrazol-3-yl)-1-oxoisoindolin-2-yl)piperidine-2,6-dione], on CK1α, the “CK1α Ymin” value is recorded as “D (D = >10- 25% remaining)” and the DC50 was under 25 nM. Besides, in the assay on Z-138 cells, the “Ymin (%)” value is “E (>10-25% remaining)” and the EC50 fell in the range of 10 to 100 nM. Besides, on GSPT1, the DC50 is at least 25 nM and the “GSPT1 Ymin” value was “F (F = >75-100% remaining)”.
